Counter-ions that a name gives are not always drawn.
Test system: Plasmodium falciparum: 3D7 strain
Assay: P. falciparum 3D7 asexual blood stage assay (SYBR green readout)
Format: cell-based
Settings: Plasmodium falciparum, 3D7, Erythrocyte, 72 h, P. falciparum 3D7 in human erythrocytes, 72 h incubation, SYBR green fluorescence
In short: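 3D7-infected erythrocytes (5% haematocrit, 0.5% parasitaemia) were exposed 72 h at 37 °C under 1% O2/3% CO2 to a 20-point titration (50,000-15 nM final, 0.5% DMSO). Parasite DNA was read by SYBR green fluorescence after overnight lysis. Percent inhibition was set against mefloquine and DMSO, and EC50 came from a biphasic two-site fit.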

C[C@H]1C[C@@H](N2C(=N)N[C@](C)(c3cccc(-c4cn(C5CCCNCC5)nn4)c3Cl)CC2=O)CCO1 (stereo partly drawn) [Example 129, (6S)-6-{3-[1-(Azepan-4-yl)-1,2,3-triazol-4-yl]-2-chlorophenyl}-2-imino-6-methyl-3-[(2S,4S)-2-methyltetrahydropyran-4-yl]-hexahydropyrimidin-4-one trifluoroacetic acid salt]
IC50: 11.9 µM

Reference: US20250134890A1, “ANTIMALARIAL HEXAHYDROPYRIMIDINE ANALOGUES” (UCB BIOPHARMA SRL, priority 2022, published 2025)
